Structures can show the parent of a compound that is named as a salt.
How the values were obtained:
Assay in all cases: Post-emergence efficacy, glasshouse
Assay type in all cases: in vivo
[1] = test system: Chenopodium album (CHEAL); settings: Chenopodium album, post-emergence, 312 h, evaluated after 13 days, 100=total damage to plant, 0=no damage to plant, read-out: Control of weed species after post-emergence application, CHEAL; for pest or weed control at 1000 g/ha: Application Rate 1000 g/Ha; for pest or weed control at 500 g/ha: Application Rate 500 g/Ha
Protocol: (§1) Seeds of a variety of test species were sown in standard soil in pots. After cultivation for 14 days (post-emergence) under controlled conditions in a glasshouse (at 24/16° C., day/night; 14 hours light; 65% humidity), the plants were sprayed with an aqueous spray solution derived from the dissolution of the technical active ingredient formula (I) in a small amount of acetone and a special solvent and emulsifier mixture referred to as IF50 (11.12% Emulsogen EL360™+44.44% N-methylpyrrolidone+44.44% Dowanol DPM glycol ether), to create a 50 g/l solution which was then diluted to required concentration using 0.25% or 1% Empicol ESC70 (Sodium lauryl ether sulphate)+1% ammonium sulphate in water as diluent.
(§2) The test plants were then grown in a glasshouse under controlled conditions (at 24/16° C., day/night; 14 hours light; 65% humidity) and watered twice daily. After 13 days the test was evaluated (100=total damage to plant; 0=no damage to plant).
(§3) Ipomoea hederacea (IPOHE), Euphorbia heterophylla (EPHHL), Chenopodium album (CHEAL), Amaranthus palmeri (AMAPA), Lolium perenne (LOLPE), Digitaria sanguinalis (DIGSA), Eleusine indica (ELEIN), Echinochloa crus-galli (ECHCG), Setaria faberi (SETFA)

[2] = test system: Ipomoea hederacea (IPOHE); settings: Ipomoea hederacea, post-emergence, 312 h, evaluated after 13 days, 100=total damage to plant, 0=no damage to plant, read-out: Control of weed species after post-emergence application, IPOHE; for pest or weed control at 1000 g/ha: Application Rate 1000 g/Ha; for pest or weed control at 500 g/ha: Application Rate 500 g/Ha
Protocol: as §1, §2, §3

[3] = test system: Setaria faberi (SETFA); settings: Setaria faberi, post-emergence, 312 h, evaluated after 13 days, 100=total damage to plant, 0=no damage to plant, read-out: Control of weed species after post-emergence application, SETFA; for pest or weed control at 1000 g/ha: Application Rate 1000 g/Ha; for pest or weed control at 500 g/ha: Application Rate 500 g/Ha
Protocol: as §1, §2, §3

[4] = test system: Euphorbia heterophylla (EPHHL); settings: Euphorbia heterophylla, post-emergence, 312 h, evaluated after 13 days, 100=total damage to plant, 0=no damage to plant, read-out: Control of weed species after post-emergence application, EPHHL; for pest or weed control at 1000 g/ha: Application Rate 1000 g/Ha; for pest or weed control at 500 g/ha: Application Rate 500 g/Ha
Protocol: as §1, §2, §3

[5] = test system: Echinochloa crus-galli (ECHCG); settings: Echinochloa crus-galli, post-emergence, 312 h, evaluated after 13 days, 100=total damage to plant, 0=no damage to plant, read-out: Control of weed species after post-emergence application, ECHCG; for pest or weed control at 1000 g/ha: Application Rate 1000 g/Ha; for pest or weed control at 500 g/ha: Application Rate 500 g/Ha
Protocol: as §1, §2, §3

[6] = test system: Eleusine indica (ELEIN); settings: Eleusine indica, post-emergence, 312 h, evaluated after 13 days, 100=total damage to plant, 0=no damage to plant, read-out: Control of weed species after post-emergence application, ELEIN; for pest or weed control at 1000 g/ha: Application Rate 1000 g/Ha; for pest or weed control at 500 g/ha: Application Rate 500 g/Ha
Protocol: as §1, §2, §3

[7] = test system: Lolium perenne (LOLPE); settings: Lolium perenne, post-emergence, 312 h, evaluated after 13 days, 100=total damage to plant, 0=no damage to plant, read-out: Control of weed species after post-emergence application, LOLPE; for pest or weed control at 1000 g/ha: Application Rate 1000 g/Ha; for pest or weed control at 500 g/ha: Application Rate 500 g/Ha
Protocol: as §1, §2, §3

[8] = test system: Digitaria sanguinalis (DIGSA); settings: Digitaria sanguinalis, post-emergence, 312 h, evaluated after 13 days, 100=total damage to plant, 0=no damage to plant, read-out: Control of weed species after post-emergence application, DIGSA; for pest or weed control at 1000 g/ha: Application Rate 1000 g/Ha; for pest or weed control at 500 g/ha: Application Rate 500 g/Ha
Protocol: as §1, §2, §3

[9] = test system: Amaranthus palmeri (AMAPA); settings: Amaranthus palmeri, post-emergence, 312 h, evaluated after 13 days, 100=total damage to plant, 0=no damage to plant, read-out: Control of weed species after post-emergence application, AMAPA; for pest or weed control at 1000 g/ha: Application Rate 1000 g/Ha; for pest or weed control at 500 g/ha: Application Rate 500 g/Ha
Protocol: as §1, §2, §3

Row | SMILES | pest or weed control at 1000 g/ha [1] [%] | pest or weed control at 1000 g/ha [2] [%] | pest or weed control at 1000 g/ha [3] [%] | pest or weed control at 1000 g/ha [4] [%] | pest or weed control at 1000 g/ha [5] [%] | pest or weed control at 1000 g/ha [6] [%] | pest or weed control at 1000 g/ha [7] [%] | pest or weed control at 1000 g/ha [8] [%] | pest or weed control at 1000 g/ha [9] [%] | pest or weed control at 500 g/ha [1] [%] | pest or weed control at 500 g/ha [2] [%] | pest or weed control at 500 g/ha [8] [%] | pest or weed control at 500 g/ha [3] [%] | pest or weed control at 500 g/ha [4] [%] | pest or weed control at 500 g/ha [5] [%] | pest or weed control at 500 g/ha [6] [%] | pest or weed control at 500 g/ha [7] [%] | pest or weed control at 500 g/ha [9] [%]
1 | C[n+]1cc(P(C)(=O)O)c2ccccc2n1 [Compound A7] | 100 | 70 | 70 | 90 | 70 | 80 | 40 | – | – | – | – | – | – | – | – | – | – | –
2 | C[n+]1cc(C(=O)Nc2nncs2)c2ccccc2n1 [Compound A26] | 40 | 30 | 10 | 20 | 20 | 20 | 10 | 0 | 20 | – | – | – | – | – | – | – | – | –
3 | COP(=O)([O-])c1c[n+](CC(=O)NS(C)(=O)=O)nc2ccccc12 [Compound A63, [2-[2-(methanesulfonamido)-2-oxo-ethyl]cinnolin-2-ium-4-yl]-methoxy-phosphinate] | 30 | 30 | 60 | 70 | 50 | 50 | 10 | 70 | 30 | – | – | – | – | – | – | – | – | –
4 | CC(C)S(=O)(=O)[N-]C(=O)c1c[n+](C)nc2ccccc12 [Compound A34] | 50 | 50 | 60 | 60 | 20 | 40 | 0 | 30 | 20 | – | – | – | – | – | – | – | – | –
5 | CS(=O)(=O)[N-]C(=O)c1c[n+](CCO)nc2ccccc12 [Compound A21] | 70 | 80 | 90 | 80 | 50 | 80 | 60 | 70 | 90 | – | – | – | – | – | – | – | – | –
6 | C[n+]1cc(CCC(=O)O)c2ccccc2n1 [Compound A55, 3-(2-methylcinnolin-2-ium-4-yl)propanoic acid chloride] | 100 | 70 | 30 | 70 | 90 | 100 | 20 | 100 | 90 | – | – | – | – | – | – | – | – | –
7 | O=C(O)c1c[n+](CCOS(=O)(=O)[O-])nc2ccccc12 [Compound A28, 2-(4-carboxycinnolin-2-ium-2-yl)ethyl sulfate] | 70 | 20 | 40 | 30 | 20 | 40 | 50 | 70 | 90 | – | – | – | – | – | – | – | – | –
8 | CS(=O)(=O)[N-]C(=O)c1c[n+](CC(=O)NS(C)(=O)=O)nc2ccccc12 [Compound A13] | 0 | 10 | 10 | 10 | 10 | 10 | 10 | 10 | 0 | – | – | – | – | – | – | – | – | –
9 | C[n+]1cc(C(=O)[N-]S(=O)(=O)C(C)(C)C)c2ccccc2n1 [Compound A36] | 30 | 30 | 30 | 20 | 10 | 30 | 0 | 10 | 40 | – | – | – | – | – | – | – | – | –
10 | COCC[n+]1cc(C(=O)[N-]S(C)(=O)=O)c2ccccc2n1 [Compound A24] | 70 | 60 | 50 | 40 | 50 | 50 | 20 | 40 | 70 | – | – | – | – | – | – | – | – | –
11 | C[n+]1cc(OCC(=O)O)c2ccccc2n1 [Compound A58] | 70 | 20 | 60 | 20 | 10 | 30 | 0 | 70 | 80 | – | – | – | – | – | – | – | – | –
12 | CCOC(=O)Cc1c[n+](C)nc2ccccc12 [Compound A52, ethyl 2-(2-methylcinnolin-2-ium-4-yl)acetate 2,2,2-trifluoroacetate] | – | – | – | – | – | – | – | – | – | 60 | 20 | 30 | 10 | 40 | 10 | 70 | 10 | 50
13 | O=C(O)c1c[n+](CCO)nc2ccccc12 [Compound A30] | 100 | 100 | 70 | 100 | 50 | 80 | 40 | 90 | 100 | – | – | – | – | – | – | – | – | –
14 | CCOP(=O)(O)CCc1c[n+](C)nc2ccccc12 [Compound A54, ethoxy-[2-(2-methylcinnolin-2-ium-4-yl)ethyl]phosphinic acid 2,2,2-trifluoroacetate] | – | – | – | – | – | – | – | – | – | 20 | 20 | 40 | 30 | 80 | 30 | 30 | 20 | 30
